Assay results as given in PubChem BioAssay AID1963841 (Molecular Pharmacology Branch, DTP, NCI, 2024).

System: 439559-082-T-J2-PDC spheroid viability
Assay: Anticancer human tumor 439559-082-T-J2-PDC patient-derived colon adenocarcinoma cell line growth inhibition [POLQ]
Details: spheroids with HUVEC and MSC; for IC50: curve of first compound; for viability, T/C: stronger effect = lower value
How it was run: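 Growth inhibition in 3D: complex spheroids (tumor PDC, HUVEC, MSC) treated with POLQ inhibitor combinations; where Cmax unknown, highest tested concentration 10 microM, except SN-38 at 1 microM.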

[1] = second compound 0.0316 µM, first compound 0.0316 µM
[2] = second compound 0.0316 µM, first compound 0.1 µM
[3] = second compound 0.0316 µM, first compound 0.316 µM
[4] = second compound 0.0316 µM, first compound 1 µM
[5] = second compound 0.0316 µM, first compound 3.16 µM
[6] = second compound 0.0316 µM, first compound 10 µM
[7] = second compound 0.1 µM, first compound 0.0316 µM
[8] = second compound 0.1 µM, first compound 0.1 µM
[9] = second compound 0.1 µM, first compound 0.316 µM
[10] = second compound 0.1 µM, first compound 1 µM
[11] = second compound 0.1 µM, first compound 3.16 µM
[12] = second compound 0.1 µM, first compound 10 µM
[13] = second compound 0.316 µM, first compound 0.0316 µM
[14] = second compound 0.316 µM, first compound 0.1 µM
[15] = second compound 0.316 µM, first compound 0.316 µM
[16] = second compound 0.316 µM, first compound 1 µM
[17] = second compound 0.316 µM, first compound 3.16 µM
[18] = second compound 0.316 µM, first compound 10 µM
[19] = second compound 1 µM, first compound 0.0316 µM
[20] = second compound 1 µM, first compound 0.1 µM
[21] = second compound 1 µM, first compound 0.316 µM
[22] = second compound 1 µM, first compound 1 µM
[23] = second compound 1 µM, first compound 3.16 µM
[24] = second compound 1 µM, first compound 10 µM
[25] = second compound 3.16 µM, first compound 0.0316 µM
[26] = second compound 3.16 µM, first compound 0.1 µM
[27] = second compound 3.16 µM, first compound 0.316 µM
[28] = second compound 3.16 µM, first compound 1 µM
[29] = second compound 3.16 µM, first compound 3.16 µM
[30] = second compound 3.16 µM, first compound 10 µM
[31] = second compound 10 µM, first compound 0.0316 µM
[32] = second compound 10 µM, first compound 0.1 µM
[33] = second compound 10 µM, first compound 0.316 µM
[34] = second compound 10 µM, first compound 1 µM
[35] = second compound 10 µM, first compound 3.16 µM
[36] = second compound 10 µM, first compound 10 µM
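Further: spheroids exposed to compounds for seven days before readout.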
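Wherever viability, T/C is given: 100% = DMSO vehicle control viability.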

Compound `CCc1cc2c(N3CCc4c(cc(Cn5ccnc5)cc4-c4cn(C)nc4C(F)(F)F)C3=O)cc(C)nc2c(OC)n1` + COC1C(OC(N)=O)C(O)C(Oc2ccc3c(O)c(NC(=O)c4ccc(O)c(CC=C(C)C)c4)c(=O)oc3c2C)OC1(C)C has an IC50 (second compound 0.0316 µM) of over 10 µM, an IC50 (second compound 0.1 µM) of over 10 µM and an IC50 (second compound 0.316 µM) of over 10 µM. For the same compound, the IC50 (second compound 1 µM) was over 10 µM, the IC50 (second compound 3.16 µM) was over 10 µM and the IC50 (second compound 10 µM) was over 10 µM. The viability, T/C [1] was 104%, the viability, T/C [2] was 103% and the viability, T/C [3] was 98.8%. It also gave a viability, T/C [4] of 102%, a viability, T/C [5] of 95.4% and a viability, T/C [6] of 91.4%. The viability, T/C [7] was 102%, the viability, T/C [8] was 101% and the viability, T/C [9] was 91.7%. For the same compound, the viability, T/C [10] was 95.2%, the viability, T/C [11] was 92.7% and the viability, T/C [12] was 94.3%. It also gave a viability, T/C [13] of 95.5%, a viability, T/C [14] of 93.9% and a viability, T/C [15] of 102%. It also gave a viability, T/C [16] of 97.7%, a viability, T/C [17] of 94.9% and a viability, T/C [18] of 101%. For the same compound, the viability, T/C [19] was 99.4%, the viability, T/C [20] was 105% and the viability, T/C [21] was 103%. It also gave a viability, T/C [22] of 95.7%, a viability, T/C [23] of 94.3% and a viability, T/C [24] of 93.3%. The viability, T/C [25] was 93.1%, the viability, T/C [26] was 101% and the viability, T/C [27] was 96.6%. The viability, T/C [28] was 90.4%, the viability, T/C [29] was 95.7% and the viability, T/C [30] was 94.4%. It also gave a viability, T/C [31] of 105%, a viability, T/C [32] of 94.4% and a viability, T/C [33] of 93.6%. It also gave a viability, T/C [34] of 91.2%, a viability, T/C [35] of 95.7% and a viability, T/C [36] of 83.8%.
`COc1cc2cc(C(=O)CCC(=O)O)sc2cc1OC` + COC1C(OC(N)=O)C(O)C(Oc2ccc3c(O)c(NC(=O)c4ccc(O)c(CC=C(C)C)c4)c(=O)oc3c2C)OC1(C)C gave an IC50 (second compound 0.0316 µM) of over 10 µM, an IC50 (second compound 0.1 µM) of over 10 µM and an IC50 (second compound 0.316 µM) of over 10 µM. It also gave an IC50 (second compound 1 µM) of over 10 µM, an IC50 (second compound 3.16 µM) of over 10 µM and an IC50 (second compound 10 µM) of over 10 µM. It also gave a viability, T/C [1] of 94%, a viability, T/C [2] of 96.2% and a viability, T/C [3] of 90.1%. The viability, T/C [4] was 92.3%, the viability, T/C [5] was 100% and the viability, T/C [6] was 95.2%. The viability, T/C [7] was 94.1%, the viability, T/C [8] was 103% and the viability, T/C [9] was 103%. The viability, T/C [10] was 95.7%, the viability, T/C [11] was 111% and the viability, T/C [12] was 98.1%. For the same compound, the viability, T/C [13] was 98.6%, the viability, T/C [14] was 99.1% and the viability, T/C [15] was 96.2%. It also gave a viability, T/C [16] of 97.8%, a viability, T/C [17] of 97.1% and a viability, T/C [18] of 93.2%. It also gave a viability, T/C [19] of 98.1%, a viability, T/C [20] of 99.3% and a viability, T/C [21] of 98.8%. For the same compound, the viability, T/C [22] was 94.7%, the viability, T/C [23] was 96.1% and the viability, T/C [24] was 91.3%. It also gave a viability, T/C [25] of 99.1%, a viability, T/C [26] of 99.5% and a viability, T/C [27] of 84.7%. It also gave a viability, T/C [28] of 95.6%, a viability, T/C [29] of 98% and a viability, T/C [30] of 89.5%. For the same compound, the viability, T/C [31] was 99%, the viability, T/C [32] was 96.9% and the viability, T/C [33] was 97.9%. The viability, T/C [34] was 95.9%, the viability, T/C [35] was 111% and the viability, T/C [36] was 89.6%.
`C=CC(=O)N1CCN(c2nc(=O)n(-c3c(C)ccnc3C(C)C)c3nc(-c4c(O)cccc4F)c(F)cc23)C(C)C1` (stereo not drawn) + COC1C(OC(N)=O)C(O)C(Oc2ccc3c(O)c(NC(=O)c4ccc(O)c(CC=C(C)C)c4)c(=O)oc3c2C)OC1(C)C gave an IC50 (second compound 0.0316 µM) of over 10 µM, an IC50 (second compound 0.1 µM) of over 10 µM and an IC50 (second compound 0.316 µM) of over 10 µM. For the same compound, the IC50 (second compound 1 µM) was over 10 µM, the IC50 (second compound 3.16 µM) was over 10 µM and the IC50 (second compound 10 µM) was over 10 µM. The viability, T/C [1] was 95.8%, the viability, T/C [2] was 93.5% and the viability, T/C [3] was 104%. For the same compound, the viability, T/C [4] was 101%, the viability, T/C [5] was 104% and the viability, T/C [6] was 91.4%. For the same compound, the viability, T/C [7] was 96.7%, the viability, T/C [8] was 105% and the viability, T/C [9] was 98%. The viability, T/C [10] was 101%, the viability, T/C [11] was 106% and the viability, T/C [12] was 96.9%. The viability, T/C [13] was 103%, the viability, T/C [14] was 96.3% and the viability, T/C [15] was 99.7%. The viability, T/C [16] was 101%, the viability, T/C [17] was 107% and the viability, T/C [18] was 98.6%. For the same compound, the viability, T/C [19] was 106%, the viability, T/C [20] was 105% and the viability, T/C [21] was 97.6%. For the same compound, the viability, T/C [22] was 101%, the viability, T/C [23] was 109% and the viability, T/C [24] was 98.8%. The viability, T/C [25] was 98.1%, the viability, T/C [26] was 101% and the viability, T/C [27] was 101%. For the same compound, the viability, T/C [28] was 104%, the viability, T/C [29] was 98.5% and the viability, T/C [30] was 102%. For the same compound, the viability, T/C [31] was 103%, the viability, T/C [32] was 92.8% and the viability, T/C [33] was 98.8%. It also gave a viability, T/C [34] of 109%, a viability, T/C [35] of 106% and a viability, T/C [36] of 98.8%.
Compound `CC(=O)O[C@H]1C(=O)[C@@]2(C)[C@H]([C@H](OC(=O)c3ccccc3)[C@]3(O)C[C@H](OC(=O)[C@H](O)[C@@H](NC(=O)c4ccccc4)c4ccccc4)C(C)=C1C3(C)C)[C@]1(OC(C)=O)CO[C@@H]1C[C@@H]2O` + Nc1ccc(C#CCN(C(=O)Cc2ncc(C(F)(F)F)cc2C(F)(F)F)c2ccc(F)cc2)nn1 has an IC50 (second compound 0.0316 µM) of 0.73 µM, an IC50 (second compound 0.1 µM) of 1.25 µM and an IC50 (second compound 0.316 µM) of 0.807 µM. The IC50 (second compound 1 µM) was 0.898 µM, the IC50 (second compound 3.16 µM) was 0.511 µM and the IC50 (second compound 10 µM) was 0.363 µM. It also gave a viability, T/C (second compound 0.0316 µM, first compound 0.00949 µM) of 51.6%, a viability, T/C (second compound 0.0316 µM, first compound 0.03 µM) of 54.9% and a viability, T/C (second compound 0.0316 µM, first compound 0.0949 µM) of 75.6%. For the same compound, the viability, T/C (second compound 0.0316 µM, first compound 0.3 µM) was 77.2%, the viability, T/C (second compound 0.0316 µM, first compound 0.949 µM) was 45.6% and the viability, T/C (second compound 0.0316 µM, first compound 3 µM) was 22.1%. For the same compound, the viability, T/C (second compound 0.1 µM, first compound 0.00949 µM) was 53%, the viability, T/C (second compound 0.1 µM, first compound 0.03 µM) was 53.8% and the viability, T/C (second compound 0.1 µM, first compound 0.0949 µM) was 72.7%. It also gave a viability, T/C (second compound 0.1 µM, first compound 0.3 µM) of 77.3%, a viability, T/C (second compound 0.1 µM, first compound 0.949 µM) of 53.2% and a viability, T/C (second compound 0.1 µM, first compound 3 µM) of 25.8%. It also gave a viability, T/C (second compound 0.316 µM, first compound 0.00949 µM) of 54%, a viability, T/C (second compound 0.316 µM, first compound 0.03 µM) of 58.5% and a viability, T/C (second compound 0.316 µM, first compound 0.0949 µM) of 79.9%. For the same compound, the viability, T/C (second compound 0.316 µM, first compound 0.3 µM) was 78.7%, the viability, T/C (second compound 0.316 µM, first compound 0.949 µM) was 47.1% and the viability, T/C (second compound 0.316 µM, first compound 3 µM) was 18.9%. The viability, T/C (second compound 1 µM, first compound 0.00949 µM) was 46.2%, the viability, T/C (second compound 1 µM, first compound 0.03 µM) was 56.7% and the viability, T/C (second compound 1 µM, first compound 0.0949 µM) was 82.3%. It also gave a viability, T/C (second compound 1 µM, first compound 0.3 µM) of 79.8%, a viability, T/C (second compound 1 µM, first compound 0.949 µM) of 49.2% and a viability, T/C (second compound 1 µM, first compound 3 µM) of 19%. For the same compound, the viability, T/C (second compound 3.16 µM, first compound 0.00949 µM) was 37.2%, the viability, T/C (second compound 3.16 µM, first compound 0.03 µM) was 53.5% and the viability, T/C (second compound 3.16 µM, first compound 0.0949 µM) was 81.9%. For the same compound, the viability, T/C (second compound 3.16 µM, first compound 0.3 µM) was 69%, the viability, T/C (second compound 3.16 µM, first compound 0.949 µM) was 37.9% and the viability, T/C (second compound 3.16 µM, first compound 3 µM) was 19.5%. It also gave a viability, T/C (second compound 10 µM, first compound 0.00949 µM) of 42.8%, a viability, T/C (second compound 10 µM, first compound 0.03 µM) of 48% and a viability, T/C (second compound 10 µM, first compound 0.0949 µM) of 68.8%. It also gave a viability, T/C (second compound 10 µM, first compound 0.3 µM) of 51.7%, a viability, T/C (second compound 10 µM, first compound 0.949 µM) of 38% and a viability, T/C (second compound 10 µM, first compound 3 µM) of 21.9%.
